Test results from US20260374756A1, “HETEROCYCLIC COMPOUNDS AS INHIBITORS OF MONOACYLGLYCEROL LIPASE (MAGL)” (Hoffmann-La Roche Inc., priority 2022, published 2026).

Molecular target: T1, hMAGL (Homo sapiens, UniProt Q99685)
T1 sequence (Q99685 1-303): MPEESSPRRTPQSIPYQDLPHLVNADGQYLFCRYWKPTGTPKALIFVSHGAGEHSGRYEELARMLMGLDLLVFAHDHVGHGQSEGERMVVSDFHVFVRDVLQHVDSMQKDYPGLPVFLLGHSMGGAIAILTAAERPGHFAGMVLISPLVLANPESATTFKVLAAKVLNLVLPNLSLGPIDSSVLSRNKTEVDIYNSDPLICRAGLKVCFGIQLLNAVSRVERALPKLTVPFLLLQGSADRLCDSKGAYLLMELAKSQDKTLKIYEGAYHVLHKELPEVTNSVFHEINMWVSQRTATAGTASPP
Test: 2-AG assay: MAGL inhibition, hydrolysis of 2-arachidonoylglycerol to arachidonic acid followed by mass spectrometry
Format: biochemical
Method in brief: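 Read-out is LC-MS/MS of arachidonic acid released from 2-arachidonoylglycerol (8 μM final), normalised to d8-arachidonic acid internal standard after acetonitrile quench. Enzyme […] and compound were pre-mixed 15 min, then reacted 30 min, both at RT, in Tris/EDTA buffer with 0.01% Tween-20 and 2.5% DMSO.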

Row | IC50 | Compound
1 | 2.26 nM | O=C(N1CC2(CC(Cc3n[nH]cc3C(F)(F)F)C2)C1)N1CC2(CC(n3cnc(C(F)F)n3)C2)C1 [Example 344, [6-[3-(difluoromethyl)-1,2,4-triazol-1-yl]-2-azaspiro[3.3]heptan-2-yl]-[6-[[4-(trifluoromethyl)-1H-pyrazol-3-yl]methyl]-2-azaspiro[3.3]heptan-2-yl]methanone]
2 | 2.79 nM | CC(C)(C)c1conc1CN1CC2(C1)CN(C(=O)N1CC3(CC(n4cnc(C5CC5)n4)C3)C1)C2 [Example 256, [6-[(4-tert-butylisoxazol-3-yl)methyl]-2,6-diazaspiro[3.3]heptan-2-yl]-[6-(3-cyclopropyl-1,2,4-triazol-1-yl)-2-azaspiro[3.3]heptan-2-yl]methanone]
3 | 3.62 nM | O=C(N1CC2(CC(Cc3cnn(CC(F)(F)F)n3)C2)C1)N1CC2(CC(n3cnc(C(F)(F)F)n3)C2)C1 [Example 340, [6-[[2-(2,2,2-trifluoroethyl)triazol-4-yl]methyl]-2-azaspiro[3.3]heptan-2-yl]-[6-[3-(trifluoromethyl)-1,2,4-triazol-1-yl]-2-azaspiro[3.3]heptan-2-yl]methanone]
4 | 1.77 nM | O=C(N1CC2(CC(Cc3cn(CC(F)(F)F)nn3)C2)C1)N1CC2(CC(n3cnc(C4CC4)n3)C2)C1 [Example 347, [6-(3-cyclopropyl-1,2,4-triazol-1-yl)-2-azaspiro[3.3]heptan-2-yl]-[6-[[1-(2,2,2-trifluoroethyl)triazol-4-yl]methyl]-2-azaspiro[3.3]heptan-2-yl]methanone]
5 | 0.33 nM | O=C(N1CC2(CC(Cc3cc(C(F)F)n[nH]3)C2)C1)N1CC2(CC(c3cc(C4CC4)n[nH]3)C2)C1 [Example 294, [6-(3-cyclopropyl-1H-pyrazol-5-yl)-2-azaspiro[3.3]heptan-2-yl]-[6-[[3-(difluoromethyl)-1H-pyrazol-5-yl]methyl]-2-azaspiro[3.3]heptan-2-yl]methanone]
6 | 9.06 nM | O=C(N1CC2(CC(Cc3n[nH]c(C4(C(F)(F)F)CC4)n3)C2)C1)N1CC2(CC(n3cnc(C(F)F)n3)C2)C1 [Example 335, [6-[3-(difluoromethyl)-1,2,4-triazol-1-yl]-2-azaspiro[3.3]heptan-2-yl]-[6-[[5-[1-(trifluoromethyl)cyclopropyl]-1H-1,2,4-triazol-3-yl]methyl]-2-azaspiro[3.3]heptan-2-yl]methanone]
7 | 2310 nM | O=C(N1CC2(CC(n3cnc(C(F)(F)F)n3)C2)C1)N1CC2(CN(Cc3cc[nH]n3)C2)C1 [Example 284, [6-(1H-pyrazol-3-ylmethyl)-2,6-diazaspiro[3.3]heptan-2-yl]-[6-[3-(trifluoromethyl)-1,2,4-triazol-1-yl]-2-azaspiro[3.3]heptan-2-yl]methanone]
8 | 0.11 nM | O=C(N1CC2(CC(Cn3nccc3C3CC3)C2)C1)N1CC2(CC(n3cnc(C4CC4)n3)C2)C1 [Example 355, [6-[(5-cyclopropylpyrazol-1-yl)methyl]-2-azaspiro[3.3]heptan-2-yl]-[6-(3-cyclopropyl-1,2,4-triazol-1-yl)-2-azaspiro[3.3]heptan-2-yl]methanone]

The next lines start with the compound.

Row | Compound | IC50
9 | O=C(N1CC2(CC(n3cnc(C(F)(F)F)n3)C2)C1)N1CC2(CN(Cc3nnnn3CC(F)(F)F)C2)C1 [Example 197, [6-[[1-(2,2,2-trifluoroethyl)tetrazol-5-yl]methyl]-2,6-diazaspiro[3.3]heptan-2-yl]-[6-[3-(trifluoromethyl)-1,2,4-triazol-1-yl]-2-azaspiro[3.3]heptan-2-yl]methanone] | 445 nM
10 | O=C(N1CC2(CC(n3cnc(C4(O)CC4)n3)C2)C1)N1CC2(CN(Cc3nc(C4CC4)cs3)C2)C1 [Example 240, [6-[(4-cyclopropylthiazol-2-yl)methyl]-2,6-diazaspiro[3.3]heptan-2-yl]-[6-[3-(1-hydroxycyclopropyl)-1,2,4-triazol-1-yl]-2-azaspiro[3.3]heptan-2-yl]methanone] | 232 nM
11 | Cn1ncc(CN2CC3(C2)CN(C(=O)N2CC4(CC(c5cc(C6CC6)n[nH]5)C4)C2)C3)c1C(F)(F)F [Example 163, [6-(3-cyclopropyl-1H-pyrazol-5-yl)-2-azaspiro[3.3]heptan-2-yl]-[6-[[1-methyl-5-(trifluoromethyl)pyrazol-4-yl]methyl]-2,6-diazaspiro[3.3]heptan-2-yl]methanone] | 3.3 nM
12 | O=C(N1CC2(CC(n3cnc(C4CC4)n3)C2)C1)N1CC2(CN(Cc3cn(CC(F)(F)F)nn3)C2)C1 [Example 108, [6-(3-cyclopropyl-1,2,4-triazol-1-yl)-2-azaspiro[3.3]heptan-2-yl]-[6-[[1-(2,2,2-trifluoroethyl)triazol-4-yl]methyl]-2,6-diazaspiro[3.3]heptan-2-yl]methanone] | 735 nM
13 | O=C(N1CC2(CC(Cc3nc(C(F)(F)F)ns3)C2)C1)N1CC2(CC(n3cnc(C4(O)CC4)n3)C2)C1 [Example 17, [6-[3-(1-hydroxycyclopropyl)-1,2,4-triazol-1-yl]-2-azaspiro[3.3]heptan-2-yl]-[6-[[3-(trifluoromethyl)-1,2,4-thiadiazol-5-yl]methyl]-2-azaspiro[3.3]heptan-2-yl]methanone] | 17.5 nM
14 | O=C(N1CC2(CC(n3cnc(C4CC4)n3)C2)C1)N1CC2(CN(Cc3sncc3C(F)(F)F)C2)C1 [Example 179, [6-(3-cyclopropyl-1,2,4-triazol-1-yl)-2-azaspiro[3.3]heptan-2-yl]-[6-[[4-(trifluoromethyl)isothiazol-5-yl]methyl]-2,6-diazaspiro[3.3]heptan-2-yl]methanone] | 2 nM
15 | O=C(N1CC2(CC(n3cnc(C4CC4)n3)C2)C1)N1CC2(CN(Cc3cc(C(F)(F)F)on3)C2)C1 [Example 190, [6-(3-cyclopropyl-1,2,4-triazol-1-yl)-2-azaspiro[3.3]heptan-2-yl]-[6-[[5-(trifluoromethyl)isoxazol-3-yl]methyl]-2,6-diazaspiro[3.3]heptan-2-yl]methanone] | 7.53 nM
16 | O=C(N1CC2(CC(n3cnc(C(F)(F)F)n3)C2)C1)N1CC2(CN(Cc3cnc(C(F)(F)F)o3)C2)C1 [Example 211, [6-[[2-(trifluoromethyl)oxazol-5-yl]methyl]-2,6-diazaspiro[3.3]heptan-2-yl]-[6-[3-(trifluoromethyl)-1,2,4-triazol-1-yl]-2-azaspiro[3.3]heptan-2-yl]methanone] | 52.9 nM
17 | O=C(N1CC2(CC(Cc3cn(CC(F)(F)F)nc3C(F)(F)F)C2)C1)N1CC2(CC(n3cnc(C4(O)CC4)n3)C2)C1 [Example 120, [6-[3-(1-hydroxycyclopropyl)-1,2,4-triazol-1-yl]-2-azaspiro[3.3]heptan-2-yl]-[6-[[1-(2,2,2-trifluoroethyl)-3-(trifluoromethyl)pyrazol-4-yl]methyl]-2-azaspiro[3.3]heptan-2-yl]methanone] | 0.81 nM
18 | O=C(N1CC2(CC(Cc3nc(C(F)(F)F)co3)C2)C1)N1CC2(CC(n3cnc(C4(O)CC4)n3)C2)C1 [Example 23, [6-[3-(1-hydroxycyclopropyl)-1,2,4-triazol-1-yl]-2-azaspiro[3.3]heptan-2-yl]-[6-[[4-(trifluoromethyl)oxazol-2-yl]methyl]-2-azaspiro[3.3]heptan-2-yl]methanone] | 24.5 nM
19 | Cn1ncc(CN2CC3(C2)CN(C(=O)N2CC4(CC(n5cnc(C(F)(F)F)n5)C4)C2)C3)c1C(F)(F)F [Example 164, [6-[[1-methyl-5-(trifluoromethyl)pyrazol-4-yl]methyl]-2,6-diazaspiro[3.3]heptan-2-yl]-[6-[3-(trifluoromethyl)-1,2,4-triazol-1-yl]-2-azaspiro[3.3]heptan-2-yl]methanone] | 27.3 nM
